{"source": "patent US20070135382A1", "about": "“Use of peroxisome proliferator-activated receptor gamma (ppary) and/or retinoic acid receptor (rxr) agonists to inhibit platelet functions” (priority 2003, published 2007)", "key": {"human platelets [1]": {"system": "human platelets", "assay": "Thrombin-induced platelet release of PGE2 (enzyme immunoassay)", "type": "cell-based", "conditions": "20 μM for 15 min, then 0.8 U/ml thrombin", "procedure": "(§1) Platelets were then activated with 0.8 U/ml thrombin or buffer and samples were taken at the 5, 10, 15, 30 and 60 minutes time points to measure human soluble CD40L and PGE2. CD40L assays were performed with a commercially available ELISA specific for CD40L (Bender Biomedical Systems, San Bruno, Calif.). […] The stable end product of platelet TXA2 synthesis, namely TXB2, was measured using a highly specific enzyme immunoassay from Cayman Chemical Company as per the manufacturer's directions."}, "PPARγ [2]": {"molecular_target": "T1, PPARγ (Homo sapiens, UniProt P37231)", "T1 construct": "10 μg of cell extract was incubated in each well of TransAM® PPARγ assay kit; endogenous in cells; host or cells: purified human blood platelets", "T1 sequence (P37231 1-505)": "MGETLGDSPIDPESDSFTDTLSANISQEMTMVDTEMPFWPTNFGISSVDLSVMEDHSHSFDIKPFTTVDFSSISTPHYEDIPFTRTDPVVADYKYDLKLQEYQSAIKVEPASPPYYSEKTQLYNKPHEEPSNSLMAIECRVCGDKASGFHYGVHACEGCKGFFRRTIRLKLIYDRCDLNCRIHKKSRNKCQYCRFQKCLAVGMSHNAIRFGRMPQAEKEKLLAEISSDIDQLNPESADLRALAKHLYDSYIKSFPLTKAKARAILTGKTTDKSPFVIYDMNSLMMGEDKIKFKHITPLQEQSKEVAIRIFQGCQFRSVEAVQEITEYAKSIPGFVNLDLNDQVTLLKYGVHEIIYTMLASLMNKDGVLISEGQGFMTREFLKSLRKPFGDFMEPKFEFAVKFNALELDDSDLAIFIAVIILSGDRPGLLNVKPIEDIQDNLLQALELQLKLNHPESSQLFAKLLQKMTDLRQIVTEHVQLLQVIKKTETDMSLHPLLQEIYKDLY", "T1 sequence (P19793 1-462 partner)": "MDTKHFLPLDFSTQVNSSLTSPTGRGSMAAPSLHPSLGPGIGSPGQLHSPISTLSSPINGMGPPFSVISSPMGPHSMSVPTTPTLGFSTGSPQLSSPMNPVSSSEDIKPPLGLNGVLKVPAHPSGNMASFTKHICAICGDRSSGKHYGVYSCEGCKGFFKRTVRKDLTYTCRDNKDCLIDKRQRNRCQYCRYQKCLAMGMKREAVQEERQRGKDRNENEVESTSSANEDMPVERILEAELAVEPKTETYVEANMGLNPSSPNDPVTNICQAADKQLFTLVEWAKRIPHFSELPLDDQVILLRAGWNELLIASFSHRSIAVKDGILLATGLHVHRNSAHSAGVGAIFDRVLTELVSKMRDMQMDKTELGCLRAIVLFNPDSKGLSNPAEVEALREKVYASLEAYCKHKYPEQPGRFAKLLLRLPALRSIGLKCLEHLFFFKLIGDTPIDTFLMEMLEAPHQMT", "assay": "TransAM PPARγ DNA binding activity assay in platelets", "type": "cell-based", "conditions": "platelets exposed to 20 μM agonist, 2 h at 37° C.", "method": "Platelets were lysed with hypotonic buffer (10 mM HEPES-KOH (pH 7.9), 1.5 mM MgCl2, 10 mM KCl, 0.5 mM DTT, 0.5% Nonidet P-40 and 0.2 mM PMSF) and 10 μg of cell extract was incubated in each well of TransAM® PPARγ assay kit (Active Motif, Carlsbad, Calif.) and PPARγ DNA binding was determined as per manufacturers' protocol.\nThe ability of platelet derived PPARγ to bind its DNA consensus sequence was also measured using the TransAM™ PPARγ assay kit (Active Motif Inc.). In this method the consensus DNA sequence for PPARγ binding (or as a control mutated oligonucleotides) is plate-bound. A cell lysate is then added to the well, washed and next incubated with an enzyme-conjugated anti-PPARγ antibody that recognizes only DNA-bound PPARγ. Following substrate addition, a colored product is formed."}, "human platelets [3]": {"system": "human platelets", "assay": "Thrombin-induced platelet release of CD40L (ELISA)", "type": "cell-based", "conditions": "20 μM for 15 min, then 0.8 U/ml thrombin, 5-60 min", "procedure": "as §1\n(§2) Platelets were then incubated with buffer or with thrombin, a powerful platelet activator."}, "platelets [4]": {"system": "platelets", "assay": "Platelet aggregation in platelet rich plasma (turbidometric method of Born)", "type": "cell-based, human", "method": "Platelet aggregation was performed using the turbidometric method of Born (“Quantitative Investigations into the Aggregation of Blood Platelets,” J. Physiol. Lond. 162:67 (1962), which is hereby incorporated by reference in its entirety) with simultaneous measurement of ATP release using a Chrono-log Lumi-aggregometer with AGGRO/LINK for Windows Software version 5.1.6 (Chrono-log Corp., Havertown, Pa.). Blood was collected by clean venipuncture from normal donors who abstained from drugs known to affect platelet aggregation into 0.105M/sodium citrate. Platelet rich plasma (PRP) was prepared by centrifugation at 150×g for 10 min at 20° C., and the platelet count adjusted to 250,000/μl by mixing PRP and platelet poor plasma from the same donor. All experiments were performed within 3 hours of blood collection. Aggregation was performed with ADP, and the slope of aggregation and amplitude were computed using accompanying software. The effects of the PPARγ agonist 15d-PGJ2 were tested by addition of varying concentrations to PRP for 15 min before aggregation. The 15d-PGJ2 was dissolved in DMSO, with a final concentration of DMSO in the samples of approximately 0.1%."}, "human platelets [5]": {"system": "human platelets", "assay": "Thrombin-induced platelet release of TXB2 (enzyme immunoassay)", "type": "cell-based", "conditions": "20 μM for 15 min, then 0.8 U/ml thrombin, 5-60 min", "procedure": "as §1, §2"}, "Human blood": {"system": "Human blood", "assay": "PFA-100 clotting (closure) time in human blood", "type": "cell-based", "conditions": "vs vehicle only, p=0.012", "procedure": "Platelet activation was induced using epinephrine or ADP, and clotting time was assessed using a PFA-100. The PFA-100 allows for an approximation of bleeding times in patients. Longer closure times equal a lower ability to form a clot. […] Human blood was exposed to 15d-PGJ2 or vehicle only followed by testing in the PFA-100 activated with ADP."}, "platelets [6]": {"system": "platelets", "assay": "ATP release from platelets during aggregation (Lumi-aggregometry)", "conditions": "20 μM", "method": "ATP release from platelets during aggregation was characterized by Lumi-Aggregometry after stimulation with thrombin (1 U/ml) or ADP (5 μM). […] The rate of release with normal platelets was defined as 100%. […] The results represent mean±SEM of three experiments.\nPlatelet aggregation was performed using the turbidometric method of Born (“Quantitative Investigations into the Aggregation of Blood Platelets,” J. Physiol. Lond. 162:67 (1962), which is hereby incorporated by reference in its entirety) with simultaneous measurement of ATP release using a Chrono-log Lumi-aggregometer with AGGRO/LINK for Windows Software version 5.1.6 (Chrono-log Corp., Havertown, Pa.). Blood was collected by clean venipuncture from normal donors who abstained from drugs known to affect platelet aggregation into 0.105M/sodium citrate. Platelet rich plasma (PRP) was prepared by centrifugation at 150×g for 10 min at 20° C., and the platelet count adjusted to 250,000/μl by mixing PRP and platelet poor plasma from the same donor. All experiments were performed within 3 hours of blood collection. Aggregation was performed with ADP, and the slope of aggregation and amplitude were computed using accompanying software. The effects of the PPARγ agonist 15d-PGJ2 were tested by addition of varying concentrations to PRP for 15 min before aggregation. The 15d-PGJ2 was dissolved in DMSO, with a final concentration of DMSO in the samples of approximately 0.1%. […] Additional clotting studies were performed using a PFA-100 according to the manufacturer's instructions. Basically, clotting time (induced by clotting activator such as epinephrine or ADP) was measured in the presence or absence of a PPARγ agonist, and differences noted.\nTo determine if a PPARγ agonist would inhibit platelet aggregation, the natural PPARγ agonist 15d-PGJ2 was added to PRP and aggregation and ATP release stimulated with ADP."}, "PPARγ [7]": {"molecular_target": "T1, PPARγ", "assay": "Electrophoretic mobility shift assay for PPARγ DNA binding in Meg-01 cells", "type": "cell-based", "conditions": "15d-PGJ2 5 μM or ciglitazone 10 μM, 4 hours, nuclear extract, vs DMSO", "procedure": "Cells were treated with 5 μM 15d-PGJ2, 10 μM ciglitazone, or DMSO (vehicle control) for 4 hours. The cells were washed in cold PBS and then incubated on ice in hypotonic buffer (10 mM HEPES-KOH (pH 7.9), 1.5 mM MgCl2, 10 mM KCl, 0.5 mM DTT, 0.5% Nonidet P-40 and 0.2 mM PMSF) for 10 minutes. The lysates were vortexed for 10 seconds and centrifuged for 15 seconds. The pellet was isolated carefully and re-suspended in 80 μl of hypertonic buffer (20 mM HEPES-KOH (pH 7.9), 1.5 mM MgCl2, 25% glycerol, 420 mM NaCl, 0.2 mM EDTA, 0.5 mM DTT, and 0.2 mM PMSF). After incubation on ice for 20 minutes, lysates were centrifuged for 20 seconds and the supernatant containing the nuclear protein was transferred to new tubes. Protein quantification was performed using a BCA assay kit. Platelet protein isolation was done as described for the PPARγ activity assay. For the gel shift assay of Meg-01 and platelets, the consensus sequence for PPARγ (5′-[…]-3′) (SEQ ID NO: 1) was labeled with [γ-32P]ATP using T4 Polynucleotide Kinase (Life technologies). Micro Bio-Spin P-30 Tris Chromatography Columns were used to remove the unbound nucleotides (Bio-Rad). […]"}}, "data": [{"compound": "CCCCC/C=C/C=C1/C(=O)C=C[C@@H]1C/C=C\\CCCC(=O)O", "note": "[15d-PGJ2, 15D-prostaglandin J2]", "values": [{"measurement": "thrombin-induced release of PGE2", "setting": "human platelets [1]", "value": "substantially prevented"}, {"measurement": "binding to the PPARγ DNA response element (TransAM)", "setting": "PPARγ [2]", "value": "significantly enhances binding"}, {"measurement": "release of CD40L", "setting": "human platelets [3]", "value": "largely prevented"}, {"measurement": "aggregation slope (rate)", "setting": "platelets [4]; 10 μM, ADP as platelet agonist", "value": "decrease the aggregation slope"}, {"measurement": "initial slope of platelet aggregation, % of the normal (untreated)", "setting": "platelets [4]; 20 μM, ADP-stimulated PRP, first 16 seconds, mean±SEM, n=7", "value": "83±5", "unit": "%"}, {"measurement": "amplitude of aggregation, % of normal platelets", "setting": "platelets [4]; 20 μM, ADP-stimulated PRP, mean±SEM, n=7", "value": "64±11", "unit": "%"}, {"measurement": "platelet aggregation, concentration dependence", "setting": "platelets [4]; varying concentrations, 15 min before ADP", "value": "concentration dependent inhibition"}, {"measurement": "release of TXB2", "setting": "human platelets [5]", "value": "largely prevented"}, {"measurement": "PFA-100 closure time, ADP activated", "setting": "Human blood", "value": "takes longer to form a closure"}, {"measurement": "ATP release amplitude, % of normal platelets", "setting": "platelets [6]; ADP-stimulated, n=7", "value": "22±10", "unit": "%"}, {"measurement": "ATP release slope, % of normal", "setting": "platelets [6]; ADP-stimulated, n=7", "value": "15±5", "unit": "%"}, {"measurement": "rate of ATP release with thrombin", "setting": "platelets [6]; thrombin 1 U/ml", "value": "significant (P=0.002) reduction"}, {"measurement": "level of active (DNA binding) PPARγ in Meg-01 cells by EMSA", "setting": "PPARγ [7]", "value": "increased"}]}]}
